Data taken from US4179451A, “Novel hydroxy substituted 15-deoxy-5-cis-prostenoic acids and esters” (American Cyanamid Company, priority 1978, dated 1979).
Read-outs that look alike come from different tables or passages of the source.

Key:
[1] = test system: basal gastric acid secretion; test: Inhibition of basal gastric acid secretion in the Acute Gastric Fistula Rat; format: in vivo, Female Sprague-Dawley rats; settings: 1 h, intraduodenal 10 mg./kg., after 60 minutes, read-out: % Inhibition of Total Acid or Output
Protocol: Inhibition of basal gastric acid secretion can be determined by the following procedure. Female Sprague-Dawley rats weighing 140-160 grams are fastened in individual cages for 18-24 hours. The rats are then lightly anesthetized with ether and their front teeth extracted to avoid destruction of the plastic cannula. A midline incision is then made and the stomach and duodenum exposed. A flanged polyvinyl tube is inserted into the fundic portion of the stomach and secured with a purse string suture line using 4-O Mersilene. The rat is then dosed by injection of the compound into the duodenum (1.0 ml. per 100 gram body weight). After dosing, the abdominal wall and skin are closed using metal wound clips. The rat is replaced in a cage containing a longitudinal slit to allow the polyvinyl tube to hang freely. An 8 ml. plastic collecting tube is attached to the flanged cannula and hangs freely below the cage. The first 30 minute sample is discarded designating this time as zero. The collecting tube is attached again and samples removed at the end of 60 and/or 120 minutes. The hourly samples are then transferred to a 15 ml. centrifuge and centrifuged for 5-10 minutes. Total and sediment volume are then recorded with supernatent volume being used as volume of secretion. A 1 ml. or less aliquot is then removed and placed in a 50 ml. beaker containing 10 ml. of distilled water. This sample is then titrated using 0.01 N to Na H to pH 7.0 using a Beckman zeromatic pH meter. Volume, titratable acidity (meq/L) and total acid output (μeq/hour) are recorded. Percent inhibition is determined by comparison with the appropriate control. Groups of three rats are used for preliminary testing, and groups of six rats are used for dose-response evaluations. All compounds are administered in a vehicle consisting of 0.5% methocel, 0.4% tween 80, and saline at a constant volume of 1 ml./100 gram rat. Samples are dispersed by sonification. Percent inhibition is calculated on basis of concurrent vehicle control.
In Table III which follows is given the effect on total acid output after 60 minutes of a 10 mg./kg. intraduodenal dose of representative compounds of this invention.

[2] = test system: bronchospasms elicited by acetylcholine; test: Bronchodilator Activity (Konzett Assays), acetylcholine; format: in vivo, guinea pigs; settings: Cavia porcellus; three logarithmic cumulative intravenous doses; spasmogen acetylcholine; read-out: ED50, Spasmogenic Agent Acetylcholine
Protocol: (§1) The compounds of this invention are useful as bronchodilators for the treatment of asthma and chronic bronchitis. Bronchodilator activity is determined in guinea pigs against bronchospasms elicited by intravenous injections of 5-hydroxytryptamine, histamine or acetylcholine by the Konzett procedure. [See J. Lulling, P. Lievens, F. El Sayed and J. Prignot, Arzneimittel-Forschung, 18, 955 (1968).]
(§2) In Table IV which follows bronchodilator activity for representative compounds of this invention against one or more of three spasmogenic agents is expressed as an ED50 determined from the results obtained with three logarithmic cummulative intravenous doses. In this assay, these compounds of this invention provide an effect of longer duration than does natural l-PGE1 or l-PGE2.

[3] = test system: bronchospasms elicited by 5-hydroxytryptamine; test: Bronchodilator Activity (Konzett Assays), 5-hydroxytryptamine; format: in vivo, guinea pigs; settings: Cavia porcellus; three logarithmic cumulative intravenous doses; spasmogen 5-hydroxytryptamine; read-out: ED50, Spasmogenic Agent 5-hydroxytryptamine
Protocol: as §1, §2

[4] = test system: bronchospasms elicited by histamine; test: Bronchodilator Activity (Konzett Assays), histamine; format: in vivo, guinea pigs; settings: Cavia porcellus; three logarithmic cumulative intravenous doses; spasmogen histamine; read-out: ED50, Spasmogenic Agent histamine
Protocol: as §1, §2

[5] = test system: basal gastric acid secretion; test: Inhibition of basal gastric acid secretion in the Acute Gastric Fistula Rat; format: in vivo, Female Sprague-Dawley rats; settings: read-out: % Inhibition of Total Acid or Output; for inhibition in vivo at 0.63 mg/kg: intraduodenal 0.63 mg./kg.; for inhibition in vivo at 2.5 mg/kg: intraduodenal 2.5 mg./kg.
[6] = test system: ulcerogenic properties of indomethacin; test: protection against the ulcerogenic properties of indomethacin; format: in vivo, Rats; settings: indomethacin 20 mg./kg. s.c., score 0 (normal stomach) to 4, control 3.0
Protocol: The protection against the ulcerogenic properties of indomethacin was determined in the following manner. Rats were starved for 48 hours (water was given ad libitum). Indomethacin (20 mg./kg. of body weight) was administered by the subcutaneous route and one-half the dose of the test compound was administered by gavage at the same time. After three hours, the second half of the test compound was administered also by gavage. Five hours after the administration of indomethacin the animals were decapitated and the stomachs removed. The stomachs were washed with distilled water, blotted on gauze, cut along the larger curvature, and the contents rinsed with distilled water. The stomachs were spread out, pinned on a cork and visualized under magnifying glass for ulcers. The criteria for scoring of ulcers was as previously reported [Abdel-Galil et al. Brit. J. Pharmac. Chemotherapy 33:1-14 (1968)].
1--Petechial hemorrhage or pin point ulcer
3--Many ulcers, a few large
4--Many ulcers, mainly large
A difference of at least 0.7 unit between the scores for control animals (treated with indomethacin but not test compound) and animals treated with indomethacin and test compound is considered indicative of activity from the test compound. […]

[7] = test system: gastric acid secretion; test: Gastric acid secretion inhibitory action (Shay rat procedure); format: in vivo, rats (male, CFE strain)
[8] = test system: mean arterial blood pressure; test: Hypotensive Response (normotensive rat); format: in vivo, Male Wistar strain rats; settings: anesthetized rat
Protocol: This procedure is a modification of the techniques described by Pike et al., Prostaglandins, Nobel Symposium 2, Stockholm, June, 1966; p. 165.
Male Wistar strain rats (Royal Hart Farms) averaging approximately 250 grams in weight were fastened to rat boards in a supine position by means of canvas vests and limb ties. The femoral area was infiltrated subcutaneously with lidocaine and the iliac artery and vein were exposed and cannulated. Arterial blood pressure (systolic/diastolic) was recorded using a Statham P23 Bb pressure transducer-Offner dynograph system. To obtain a stable blood pressure, the animals were anethetized before use with pentobarbital, 30 mg./kg. of body weight intravenously, and also were given hexamethoxium bitartrate, 2 mg./kg. of body weight intravenously. The test compounds were prepared by ultrasonic dispersion in a Saline-Tween 80® vehicle. A constant intravenous dose volume of 0.5 ml. was administered and test doses ranged from 0.1 to 10.0 mg./kg. of body weight.
In Table V below are recorded the percent decrease from normal of mean arterial blood pressure induced by given doses of representative compounds of this invention.

[9] = 1 h, oral dose 10 mg./kg., after 60 minutes

Row | SMILES | inhibition in vivo at 10 mg/kg [1] | ED50 [2] | ED50 [3] | ED50 [4] | further results
1 | CCCCC(C/C=C/[C@H]1[C@H](OC2CCCCO2)CC(=O)[C@@H]1C/C=C\CCCC(=O)O)OC(c1ccccc1)(c1ccccc1)c1ccccc1 (relative stereo) [9-oxo-11α-tetrahydropyranyloxy-16-triphenylmethoxy-5-cis,13-trans-prostadienoic acid] | 68% | – | – | – | –
2 | CCCCCC(O)C/C=C/[C@H]1[C@H](O)CC(=O)[C@@H]1C/C=C\CCCC(=O)O (relative stereo) [9-oxo-11α,16-dihydroxy-20-methyl-5-cis,13-trans-prostadienoic acid] | 42% | 0.72 µg/kg | 0.32 µg/kg | 0.29 µg/kg | –
3 | CCCC(C)C(O)C/C=C/[C@@H]1[C@@H](C/C=C\CCCC(=O)O)[C@@H](O)C[C@H]1O (relative stereo) [9α,11α,16-trihydroxy-17-methyl-5-cis,13-trans-prostadienoic acid] | 96% | – | – | – | inhibition in vivo at 0.63 mg/kg ([5]; 1 h, after 60 minutes): 55%; inhibition in vivo at 2.5 mg/kg ([5]; 1 h, after 60 minutes): 66%; inhibition in vivo at 0.63 mg/kg ([5]; 2 h, after 120 minutes): 47%; inhibition in vivo at 2.5 mg/kg ([5]; 2 h, after 120 minutes): 62%; inhibition in vivo at 10 mg/kg ([5]; 2 h, intraduodenal 10 mg./kg., after 120 minutes): 98%
4 | CCCCC(O)C/C=C/[C@H]1C=CC(=O)[C@@H]1C/C=C\CCCC(=O)O (relative stereo) [9-oxo-16-hydroxy-5-cis-10,13-trans-prostatrienoic acid] | 44% | 1540 µg/kg | 125 µg/kg | 81 µg/kg | –
5 | CCCCC(O)C/C=C/[C@H]1[C@H](O)CC(=O)[C@@H]1C/C=C\CCCC(=O)O (relative stereo) [9-oxo-11α,16-dihydroxy-5-cis; 13-trans-prostadienoic acid] | 69% | 17.3 µg/kg | 3.6 µg/kg | 2.1 µg/kg | inhibition in vivo at 2.5 mg/kg ([5]; 1 h, after 60 minutes): 42%; Score treated ([6]; total oral dose 0.39 mg./kg. of body weight): 2.0; Score treated ([6]; total oral dose 0.78 mg./kg. of body weight): 1.0; Percent Inhibition ([7]; subcutaneous dose 0.4 mg./kg.): 35%; Percent Inhibition ([7]; subcutaneous dose 0.8 mg./kg.): 44%; Percent Inhibition ([7]; subcutaneous dose 1.6 mg./kg.): 48%; % Decrease in Mean Arterial Blood Pressure ([8]; intravenous 2.1 mg./kg.): 27%
6 | CCCCCCCCCCOC(=O)CCC/C=C\C[C@H]1C(=O)C[C@@H](O)[C@@H]1/C=C/CC(O)CCCC (relative stereo) [decyl 9-oxo-11α,16-dihydroxy-5-cis,13-trans-prostadienoate] | 60% | – | – | – | –
7 | CCCCC(O)C/C=C/[C@@H]1[C@@H](C/C=C\CCCC(=O)O)[C@H](O)C[C@H]1O (relative stereo) [9β,11α,16-trihydroxy-5-cis,13-trans-prostadienoic acid] | – | – | – | – | % Decrease in Mean Arterial Blood Pressure ([8]; intravenous 2.1 mg./kg.): 24%
8 | CCC/C=C/C(O)C/C=C/[C@H]1C=CC(=O)[C@@H]1C/C=C\CCCC(=O)O (relative stereo) [9-oxo-16-hydroxy-20-methyl-5-cis,10,13-trans,17-trans-prostatetraenoic acid] | – | 2280 µg/kg | 625 µg/kg | 369 µg/kg | –
9 | CCCCC(O)C/C=C/[C@H]1[C@H](O)CC(=O)[C@@H]1C/C=C\CCCC(=O)OC (relative stereo) [methyl 9-oxo-11α,16-dihydroxy-5-cis,13-trans-prostadienoate] | 100% | – | – | – | inhibition in vivo at 0.625 mg/kg ([5]; 1 h, oral dose 0.625 mg./kg., after 60 minutes): 51%; inhibition in vivo at 1.25 mg/kg ([5]; 1 h, oral dose 1.25 mg./kg., after 60 minutes): 75%
10 | CCC/C=C/C(O)C/C=C/[C@H]1[C@H](O)CC(=O)[C@@H]1C/C=C\CCCC(=O)O (relative stereo) [9-oxo-11α,16-dihydroxy-20-methyl-5-cis,13-trans,17-trans-prostatrienoic acid] | 44% | 4 µg/kg | 1.2 µg/kg | 2.2 µg/kg | –
11 | CCCCCC(/C=C/[C@H]1[C@H](O)CC(=O)[C@@H]1C/C=C\CCCC(=O)O)CO (relative stereo) [9-oxo-11α-hydroxy-15-hydroxymethyl-5-cis,13-trans-prostadienoic acid] | 5% | – | – | – | –
12 | CCCC(C)C(O)C/C=C/[C@H]1[C@H](O)CC(=O)[C@@H]1C/C=C\CCCC(=O)O (relative stereo) [9-oxo-11α,16-dihydroxy-17-methyl-5-cis,13-trans-prostadienoic acid] | 93% | 3 µg/kg | 1.9 µg/kg | 0.49 µg/kg | inhibition in vivo at 10 mg/kg [5, 9]: 89%; inhibition in vivo at 10 mg/kg ([5]; 2 h, oral dose 10 mg./kg., after 120 minutes): 85%; % Decrease in Mean Arterial Blood Pressure ([8]; intravenous 1.0 mg./kg.): 42%
13 | CC/C=C/C(O)C/C=C/[C@H]1C=CC(=O)[C@@H]1C/C=C\CCCC(=O)O (relative stereo) [9-oxo-16-hydroxy-5-cis,10,13-trans,17-trans-prostatetraenoic acid] | 83% | – | – | – | inhibition in vivo at 10 mg/kg [5, 9]: 43%
14 | CCCC(C)C(O)C/C=C/[C@H]1[C@H](O)CC(=O)[C@@H]1C/C=C\CCCC(=O)OC (relative stereo) [methyl 9-oxo-11α,16-dihydroxy-17-methyl-5-cis,13-trans-prostadienoate] | 76% | – | – | – | % Decrease in Mean Arterial Blood Pressure ([8]; intravenous 1.2 mg./kg.): 42%
